Results published in paper PMC3102498 (Journal of neuro-oncology, 2010).

Key:
[1] = Phase 2 trial toxicity graded according to NCI CTC version 2
[2] = Sorafenib plasma pharmacokinetics; type: in vivo, human; conditions: for sorafenib exposure (AUC0–24) on day 28, patients on vs not on EIAEDs: day 28 of cycle 1, P = 0.0431; for AUC(0-t): AUC0–8 (mean)
[3] = cited from earlier work
[4] = Temozolomide exposure, continuous daily dosing compared to standard 5-day dosing; type: in vivo, human; conditions: 50 mg/m2/day continuous compared to 150–200 mg/m2/day for 5 days each month

## CNC(=O)c1cc(Oc2ccc(NC(=O)Nc3ccc(Cl)c(C(F)(F)F)c3)cc2)ccn1 [Sorafenib]
[1]; n = 32
  Amylase/lipase, dose modification or discontinuation of sorafenib: 4 (13) number of patients (percent of
  Palmer-Plantar Erythrodysesthesia, dose modification or discontinuation of sorafenib: 3 (9) number of patients (percent of
[2]; day 1 of cycle 1
  sorafenib exposure on day 1, patients on vs not on EIAEDs: comparable
[2]
  sorafenib exposure (AUC0–24) on day 28, patients on vs not on EIAEDs: significantly lower on day 28 for patients on EIAEDs
[2]; listed as sorafenib
  sorafenib exposure (AUC0–24) on day 28, patients on vs not on EIAEDs: significantly higher on day 28 for patients not on EIAEDs
[2]; human, plasma, oral, 400 mg, patients not on EIAEDs, day 1, n = 5 per group
  AUC(0-t): 11100 ng·h/mL
[2]; human, plasma, oral, 400 mg, patients not on EIAEDs, day 28, n = 5 per group
  AUC(0-t): 52100 ng·h/mL
[2]; human, plasma, oral, 400 mg, AUC(24) (mean), Non-EIAED patients, day 28 of cycle 1, plasma
  AUC: 129000 ng·h/mL
[2]; human, plasma, oral, 400 mg, C max (mean), Non-EIAED patients, day 28 of cycle 1, plasma
  Cmax: 8120 ng/mL
[2]; patients not on EIAEDs
  difference in mean AUC0–8, day 28 vs day 1: ~5 fold
[2]; patients not on EIAEDs, P = 0.0117
  sorafenib AUC0–24 day 28 compared to day 1: significantly higher
[2]; patients on EIAEDs, P = 0.7266
  sorafenib AUC0–24 day 28 compared to day 1: did not differ significantly
[3]; co-administration of rifampin, a CYP3A4 and UGT 1A9 inducer
  reduction in sorafenib exposure: 37%
[3]; ketoconazole (CYP3A inhibitor) with low-dose sorafenib 50 mg/day
  effect of ketoconazole co-administration on sorafenib: did not result in unexpected adverse events or evidence of altered sorafenib pharmacokinetics
[3]; phase I dose escalation study, malignant glioma patients, day one of cycle one
  sorafenib exposures, patients on vs not on EIAEDs: comparable
[3]; prior pharmacokinetic studies
  increase of sorafenib exposures over seven days (to steady-state): 3–4 fold

## Cn1nnc2c(C(N)=O)ncn2c1=O [temozolomide, Temozolomide]
[1]; 32 patients
  patients requiring dose modification or discontinuation of daily temozolomide: none of the patients
[4]
  greater temozolomide exposure with continuous daily dosing: 1.4–1.9 fold
